Results published in publication PMC4141155 (2014).
“And” between values parts separate entries of the source, which are not always exact repeats. Identical values can stand only once.

Key:
[1] = test system: d[(TTAGGG)4TTA] (DNA, G4) TTAGGGTTAGGGTTAGGGTTAGGGTTA; assay: ESI-TOF-MS; conditions: NH4+ 50 mM (ammonium acetate), pH 7.6, 50 % methanol
[2] = test system: d[(TTAGGG)4TTA] (DNA, G4) TTAGGGTTAGGGTTAGGGTTAGGGTTA; assay: ESI-TOF-MS fraction of bound G-quadruplex; conditions: NH4+ 50 mM (ammonium acetate); pH 7.6, 50 % methanol; equimolar 10 μM
[3] = test system: r[(UUAGGG)4UUA] (RNA, G4) UUAGGGUUAGGGUUAGGGUUAGGGUUA; assay: ESI-TOF-MS; conditions: NH4+ 50 mM (ammonium acetate); pH 7.6, 50 % methanol, equimolar 5 or 10 μM; first of two stepwise constants
[4] = test system: dAGGG(TTAGGG)3 (DNA, G4) AGGGTTAGGGTTAGGGTTAGGG; assay: UV melting at 295 nm; conditions: K+ 100 mM (KCl); 25 mM Tris–HCl pH 7.4; 5 μM DNA, 10 μM ligand; 2.27 °C higher than tetrachloride

binding ([1]; tosyl adducts seen in equimolar mixture with TMPyP4 tetratosylate, 10 μM)	RBA [2]	K 1 (column head misprinted K 2) [3]	K 1 ([1]; equimolar 5 or 10 μM, first of two stepwise constants)	binding [4]	SMILES
yes					Cc1ccc(S(=O)(=O)O)cc1
	85.96% and 72.28%	(5.62 ± 0.71) × 10^7 M^−1	(1.87 ± 0.19) × 10^6 M^−1	yes	C[n+]1ccc(-c2c3nc(c(-c4cc[n+](C)cc4)c4ccc([nH]4)c(-c4cc[n+](C)cc4)c4nc(c(-c5cc[n+](C)cc5)c5ccc2[nH]5)C=C4)C=C3)cc1
